Results on 18 molecules are retold here after patent US20060100245A1, “Substituted biphenyl-4-carboxylic acid arylamide analogues” (Neurogen Corporation, priority 2002, published 2006).

The term Ki denotes a dissociation constant, usually derived from enzyme kinetics or from competition with a known ligand.

The structures appear in SMILES notation.

The test deals with T1, human capsaicin receptor (VR1) (Homo sapiens, UniProt Q8NER1).
T1 construct: transfected with the pBK-CMV expression construct encoding the full length human capsaicin receptor; expressed in transfected cells
T1 sequence (Q8NER1 whole entry): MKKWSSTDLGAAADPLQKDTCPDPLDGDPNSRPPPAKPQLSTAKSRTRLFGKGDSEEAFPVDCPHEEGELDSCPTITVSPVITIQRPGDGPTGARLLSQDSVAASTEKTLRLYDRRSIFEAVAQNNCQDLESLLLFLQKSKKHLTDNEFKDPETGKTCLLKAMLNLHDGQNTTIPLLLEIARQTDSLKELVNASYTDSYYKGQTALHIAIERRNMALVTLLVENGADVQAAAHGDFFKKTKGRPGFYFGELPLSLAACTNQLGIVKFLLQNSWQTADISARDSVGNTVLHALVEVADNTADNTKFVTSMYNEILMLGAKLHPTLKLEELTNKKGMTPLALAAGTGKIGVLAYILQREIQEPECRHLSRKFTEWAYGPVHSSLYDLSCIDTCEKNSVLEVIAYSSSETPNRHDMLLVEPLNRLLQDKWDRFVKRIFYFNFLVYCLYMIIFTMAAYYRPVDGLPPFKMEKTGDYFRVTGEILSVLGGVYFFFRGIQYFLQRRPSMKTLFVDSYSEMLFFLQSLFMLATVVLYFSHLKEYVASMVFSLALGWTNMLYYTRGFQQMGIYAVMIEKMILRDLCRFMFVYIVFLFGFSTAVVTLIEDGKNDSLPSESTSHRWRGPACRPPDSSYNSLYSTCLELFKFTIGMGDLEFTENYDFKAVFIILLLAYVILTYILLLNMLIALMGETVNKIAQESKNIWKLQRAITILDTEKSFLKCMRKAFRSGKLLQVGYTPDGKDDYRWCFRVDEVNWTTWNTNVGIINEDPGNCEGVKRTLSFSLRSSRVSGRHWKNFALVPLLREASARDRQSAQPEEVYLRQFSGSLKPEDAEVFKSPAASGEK
Description: Capsaicin receptor binding assay ([3H]RTX competition). Particulars: read-out: Ki. The essentials:
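Membranes from HEK293 cells stably expressing full-length human VR1; competition against 60 pM [3H]RTX, 60 min at 37 °C in HEPES/sucrose buffer pH 7.4 with 0.25 mg/ml BSA. Non-specific binding defined with 1 μM unlabelled RTX; alpha1-acid glycoprotein added after termination on ice.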

As to `Cc1cccc(C)c1-c1ccc(C(=O)Nc2ccc(C(C)(C)C)cc2)cn1` [Compound 439, N-(4-tert-Butyl-phenyl)-6-(2,6-dimethyl-phenyl)-nicotinamide], the Ki was less than 1000 nM.
With `COc1ccccc1-c1ccc(C(=O)Nc2ccc(C(C)C)cc2)cn1` [Compound 378, N-(4-Isopropyl-phenyl)-6-(2-methoxy-phenyl)-nicotinamide] the figure was less than 1000 nM.
With `CC(C)(C)c1ccc(NC(=O)c2ccc(-c3ncccc3F)cc2)cc1` [Compound 409, N-(4-tert-Butyl-phenyl)-4-(3-fluoro-pyridin-2-yl)-benzamide] the figure was less than 1000 nM.
The value for `CC(C)(C)c1ccc(NC(=O)c2ccc(-c3ccccc3)nc2)cc1` [Compound 454, N-(4-tert-Butyl-phenyl)-6-phenyl-nicotinamide] was less than 1000 nM; that for `CC(C)(C)c1ccc(NC(=O)c2ccc(-c3ccccc3C(F)(F)F)nc2)cc1` [Compound 447, N-(4-tert-Butyl-phenyl)-6-(2-trifluoromethyl-phenyl)-nicotinamide] was less than 1000 nM; that for `CCOc1cccc(-c2ccc(C(=O)Nc3ccc(C)c(C)c3)cn2)c1` [Compound 238, N-(3,4-Dimethyl-phenyl)-6-(3-ethoxyl-phenyl)-nicotinamide] was less than 1000 nM.
For `O=C(Nc1ccc(C2CCCC2)cc1)c1ccc(-c2ncccc2F)cc1` [Compound 363, N-(4-Cyclopenyl-phenyl)-4-(3-fluoro-pyridin-2-yl)-benzamide], the Ki is less than 1000 nM.
For the molecule `CC(C)(C)c1ccc(NC(=O)c2ccc(-c3ncccc3C#N)cc2)cc1` [Compound 405, N-(4-tert-Butyl-phenyl)-4-(3-cyano-pyridin-2-yl)-benzamide], the Ki was less than 1000 nM.
The value for `CC(C)(C)c1ccc(NC(=O)c2ccc(-c3ncccc3NS(C)(=O)=O)cc2)cc1` [Compound 413, N-(4-tert-Butyl-phenyl)-4-(3-methanesulfonylamino-pyridin-2-yl)-benzamide] was less than 1000 nM; that for `CC(C)c1cccc(-c2ccc(C(=O)Nc3ccc4c(c3)CCC4)cn2)c1` [Compound 462, N-Indan-5-yl-6-(3-isopropyl-phenyl)-nicotinainide] was less than 1000 nM.
As for `CCOc1ccc(-c2ccc(C(=O)Nc3ccc(C(C)(C)C)cc3)cn2)c(Cl)c1` [Compound 440, N-(4-tert-Butyl-phenyl)-6-(2-chloro-4-ethoxy-phenyl)-nicotinamide], the Ki is less than 1000 nM.
`CC(C)(C)[C@H]1CC[C@H](NC(=O)c2ccc(-c3ncccc3Cl)cc2)CC1` [Compound 392, N-(4-tert-Butyl-cyclohexyl)-4-(3-chloro-pyridin-2-yl)-benzamide (trans)]: the Ki is less than 1000 nM.
As to `CCCCc1ccc(NC(=O)c2ccc(-c3ncccc3Cl)cc2)cc1` [Compound 332, N-(4-Butyl-phenyl)-4-(3-chloro-pyridin-2-yl)-benzamide], the Ki is less than 1000 nM.
As to `COc1cccc(-c2ccc(C(=O)Nc3ccc(C)c(F)c3)cn2)c1` [Compound 268, N-(3-Fluoro-4-methyl-phenyl)-6-(3-methoxy-phenyl)-nicotinamide], the inhibition constant (Ki) is less than 1000 nM.
With `CC(C)(C)c1cccc(NC(=O)c2ccc(-c3ccccc3F)nc2)c1` [Compound 288, N-(3-tert-Butyl-phenyl)-6-(2-fluoro-phenyl)-nicotinamide], the Ki is less than 1000 nM.
As for `CC(C)(C#N)c1ccc(NC(=O)c2ccc(-c3ncccc3Cl)cc2)cc1` [Compound 32, 4-(3-Chloro-pyridin-2-yl)-N-[4-(cyano-dimethyl-methyl)-phenyl]-benzamide], the inhibition constant (Ki) was less than 1000 nM.
With `CCCc1ccc(NC(=O)c2ccc(-c3ccccc3F)nc2)cc1` [Compound 91, 6-(2-Fluoro-phenyl)-N-(4-propyl-phenyl)-nicotinamide] the figure was less than 1000 nM.
With `O=C(Nc1ccccc1)c1ccc(-c2ccccc2Cl)nc1` [Compound 81, 6-(2-Chloro-phenyl)-N-phenyl-nicotinamide] the figure was less than 1000 nM.
